Data as given in US20050152858A1, “Solubilizing agents for active or functional organic compounds” (ISP INVESTMENTS INC., priority 2003, published 2005).
Read-outs that look alike come from different tables or passages of the source.

Columns and labels:
[1] = Solubility of solid organic sunscreens in various solvents
Experimental: Predetermined solutions (w/w) were prepared at 40-50° C. using a given solvent-sunscreen combination. The solutions were allowed to stand for 1 week at 25° C. in a constant temperature chamber. A small seed crystal was initially added at 25° C. to hasten equilibration. Solubility was measured by GLC using standard solutions to calibrate the instrument.

[2] = Enhancement of UVA absorption (UV spectrum of sunscreen in solvent); assay type: physicochemical; conditions: for λmax of E-517 in the solvent: 10 mg sunscreen E-517 (avobenzone) in 1 L of solvent; for λmax of E-567 in the solvent: 10 mg sunscreen E-567 (benzophenone-3) in 1 L of solvent
Experimental: A 10-mg portion of sunscreen was dissolved in 1 L of solvent, and the UV spectrum of the solution was measured using a Cary 1 E UV-Visible spectrophotometer.

SMILES | λmax of E-517 in the solvent [2] | λmax of E-567 in the solvent [2] | other results
CC(COC(=O)c1ccccc1)OC(=O)c1ccccc1 (centres unmarked) [propylene glycol dibenzoate, Propylene Glycol Dibenzoate] | – | – | Solubility of MBC in the solvent [1]: 33 % w/w
CCO [Ethanol, reference compound] | 358 nm | 325 nm | –
O=C(Cc1cccc(C(F)(F)F)c1)OCc1ccccc1 [benzyl α,α,α-trifluoro-m-tolylacetate, Benzyl α,α,α-Trifluoro-m-tolylacetate] | – | – | Solubility of Avobenzone in the solvent ([1]; sunscreen Avobenzone, 1 week at 25° C., seeded, GLC): 15 % w/w; Solubility of MBC in the solvent ([1]; sunscreen MBC (4-methylbenzylidene camphor), 1 week at 25° C., seeded, GLC): 34 % w/w; Solubility of Oxybenzone in the solvent ([1]; sunscreen Oxybenzone, 1 week at 25° C., seeded, GLC): 28 % w/w
O=C(OCCc1ccccc1)c1ccccc1 [2-phenylethyl benzoate, 2-Phenylethyl Benzoate] | 362 nm | 329 nm | –
